Assay results: ChEMBL document CHEMBL4418261, “Pyripyropene derivatives having acat2 inhibiting activity and stable to metabolizing enzymes” (2017)

Experiments:
[1] = Half life in Sprague-Dawley rat hepatic microsomes at 6 ug/ml by LC-MS method; format: ADME, Microsome; conditions: liver microsomes
[2] = biological target: T1, Sterol O-acyltransferase 2 (Mus musculus) (UniProt O88908); test: Potency index, ratio of PRD-043 IC50 to test compound IC50 for inhibition ACAT2 in mouse hepatic microsome membranes using [1-14C]oleoyl coenzyme A as substrate incubated for 5 mins; format: microsomes
T1 sequence (whole entry): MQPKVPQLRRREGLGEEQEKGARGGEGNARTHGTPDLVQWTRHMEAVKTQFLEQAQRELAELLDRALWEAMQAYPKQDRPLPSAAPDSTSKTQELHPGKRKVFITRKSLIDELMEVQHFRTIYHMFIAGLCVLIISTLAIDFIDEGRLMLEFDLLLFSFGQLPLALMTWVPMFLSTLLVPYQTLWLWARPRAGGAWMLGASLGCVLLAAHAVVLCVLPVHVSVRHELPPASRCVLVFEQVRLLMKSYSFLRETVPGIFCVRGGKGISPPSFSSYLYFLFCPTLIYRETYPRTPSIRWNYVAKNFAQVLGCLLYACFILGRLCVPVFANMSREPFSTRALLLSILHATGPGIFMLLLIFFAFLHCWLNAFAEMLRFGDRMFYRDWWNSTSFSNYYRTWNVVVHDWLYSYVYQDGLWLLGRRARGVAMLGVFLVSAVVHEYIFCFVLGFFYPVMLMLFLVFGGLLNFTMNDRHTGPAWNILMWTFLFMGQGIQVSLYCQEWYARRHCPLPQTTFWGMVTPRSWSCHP

| half-life at 6 ug/ml [1] [min] | Ratio IC50 [2] | SMILES |
| --- | --- | --- |
| > 540 | 10 to 20 | CCCCCC(=O)OC[C@@]1(C)[C@@H]2C[C@H](OC(=O)c3ccc(C#N)cc3)[C@@]3(C)Oc4cc(-c5cccnc5)oc(=O)c4[C@H](O)[C@@H]3[C@@]2(C)CC[C@@H]1OC(=O)CCCCC |
| > 540 | < 20 | CN(C)c1ccc([C@@H]2OC[C@@]3(C)[C@@H]4C[C@H](OC(=O)c5ccc(C#N)cc5)[C@@]5(C)Oc6cc(-c7cccnc7)oc(=O)c6[C@H](O)[C@@H]5[C@@]4(C)CC[C@@H]3O2)cc1 |
| > 540 | 10 to 20 | CC(=O)O[C@H]1CC[C@@]2(C)[C@@H](C[C@H](OC(=O)c3ccc(C#N)cc3)[C@@]3(C)Oc4cc(-c5cccnc5)oc(=O)c4[C@H](O)[C@H]23)[C@]1(C)COC(=O)C(C)C |
| < 60 | – | CC(=O)OC[C@@]1(C)[C@@H]2C[C@H](OC(=O)c3cccc(Br)c3)[C@@]3(C)Oc4cc(-c5cccnc5)oc(=O)c4[C@H](O)[C@@H]3[C@@]2(C)CC[C@@H]1OC(C)=O |
| < 60 | – | CC(=O)OC[C@@]1(C)[C@@H]2C[C@H](OC(=O)c3ccccc3F)[C@@]3(C)Oc4cc(-c5cccnc5)oc(=O)c4[C@H](O)[C@@H]3[C@@]2(C)CC[C@@H]1OC(C)=O |
| > 540 | 10 to 20 | CC(C)C(=O)OC[C@@]1(C)[C@@H]2C[C@H](OC(=O)C3CCCCC3)[C@@]3(C)Oc4cc(-c5cccnc5)oc(=O)c4[C@H](O)[C@@H]3[C@@]2(C)CC[C@@H]1OC(=O)C(C)C |
| > 540 | 10 to 20 | Cc1cccc(C)c1[C@@H]1OC[C@@]2(C)[C@@H]3C[C@H](OC(=O)c4ccc(C#N)cc4)[C@@]4(C)Oc5cc(-c6cccnc6)oc(=O)c5[C@H](O)[C@@H]4[C@@]3(C)CC[C@@H]2O1 |
| < 60 | – | CCc1ccc(C(=O)O[C@H]2C[C@H]3[C@](C)(COC(C)=O)[C@@H](OC(C)=O)CC[C@]3(C)[C@H]3[C@@H](O)c4c(cc(-c5cccnc5)oc4=O)O[C@]23C)cc1 |
| > 540 | 10 to 20 | COc1ccccc1[C@@H]1OC[C@@]2(C)[C@@H]3C[C@H](OC(=O)c4ccc(F)cc4)[C@@]4(C)Oc5cc(-c6cccnc6)oc(=O)c5[C@H](O)[C@@H]4[C@@]3(C)CC[C@@H]2O1 |
| > 540 | 10 to 20 | C[C@]1(COC(=O)c2ccccc2)[C@@H]2C[C@H](OC(=O)c3ccc(C#N)cc3)[C@@]3(C)Oc4cc(-c5cccnc5)oc(=O)c4[C@H](O)[C@@H]3[C@@]2(C)CC[C@@H]1OC(=O)c1ccccc1 |
| > 540 | 10 to 20 | Cc1ccc([C@@H]2OC[C@@]3(C)[C@@H]4C[C@H](OC(=O)c5ccc(C#N)cc5)[C@@]5(C)Oc6cc(-c7cccnc7)oc(=O)c6[C@H](O)[C@@H]5[C@@]4(C)CC[C@@H]3O2)c(C)c1 |
| > 540 | 10 to 20 | C[C@@]12CO[C@@H](c3ccccc3)O[C@H]1CC[C@@]1(C)[C@H]2C[C@H](OC(=O)C2CCCCC2)[C@@]2(C)Oc3cc(-c4cccnc4)oc(=O)c3[C@H](O)[C@H]12 |
| > 540 | 10 to 20 | CC(=O)O[C@H]1C[C@H]2[C@]3(C)CO[C@@H](c4ccccc4)O[C@H]3CC[C@]2(C)[C@H]2[C@@H](O)c3c(cc(-c4cccnc4)oc3=O)O[C@]12C |
| > 540 | 10 to 20 | C[C@@]12CO[C@@H](c3ccccc3)O[C@H]1CC[C@@]1(C)[C@H]2C[C@H](OC(=O)c2ccccc2)[C@@]2(C)Oc3cc(-c4cccnc4)oc(=O)c3[C@H](O)[C@H]12 |
| > 540 | 10 to 20 | CC(=O)O[C@H]1CC[C@@]2(C)[C@@H](C[C@H](OC(=O)c3ccc(C#N)cc3)[C@@]3(C)Oc4cc(-c5cccnc5)oc(=O)c4[C@H](O)[C@H]23)[C@]1(C)COC(=O)c1ccccc1 |
| > 540 | 10 to 20 | CC(=O)O[C@H]1C[C@H]2[C@](C)(COC(=O)C(C)C)[C@@H](OC(=O)C(C)C)CC[C@]2(C)[C@H]2[C@@H](O)c3c(cc(-c4cccnc4)oc3=O)O[C@]12C |
| > 540 | < 20 | Cc1ccc([C@@H]2OC[C@@]3(C)[C@@H]4C[C@H](OC(=O)c5ccc(F)cc5)[C@@]5(C)Oc6cc(-c7cccnc7)oc(=O)c6[C@H](O)[C@@H]5[C@@]4(C)CC[C@@H]3O2)cc1 |
| > 540 | 10 to 20 | CC(=O)OC[C@@]1(C)[C@@H]2C[C@H](OC(=O)c3ccc(C#N)cc3)[C@@]3(C)Oc4cc(-c5cccnc5)oc(=O)c4[C@H](O)[C@@H]3[C@@]2(C)CC[C@@H]1OC(=O)c1ccccc1 |

| half-life at 6 ug/ml [1] [min] | Ratio IC50 [2] | SMILES |
| --- | --- | --- |
| > 540 | 10 to 20 | COc1ccccc1[C@@H]1OC[C@@]2(C)[C@@H]3C[C@H](OC(=O)c4ccc(C#N)cc4)[C@@]4(C)Oc5cc(-c6cccnc6)oc(=O)c5[C@H](O)[C@@H]4[C@@]3(C)CC[C@@H]2O1 |
| > 540 | 10 to 20 | Cc1ccc([C@@H]2OC[C@@]3(C)[C@@H]4C[C@H](OC(=O)c5ccc(C#N)cc5)[C@@]5(C)Oc6cc(-c7cccnc7)oc(=O)c6[C@H](O)[C@@H]5[C@@]4(C)CC[C@@H]3O2)cc1 |
| > 540 | 10 to 20 | C[C@@]12CO[C@@H](c3cccc4ccccc34)O[C@H]1CC[C@@]1(C)[C@H]2C[C@H](OC(=O)c2ccc(C#N)cc2)[C@@]2(C)Oc3cc(-c4cccnc4)oc(=O)c3[C@H](O)[C@H]12 |
| > 540 | 1 | COc1cccc(C(=O)O[C@H]2C[C@H]3[C@](C)(COC(C)=O)[C@@H](OC(C)=O)CC[C@]3(C)[C@H]3[C@@H](O)c4c(cc(-c5cccnc5)oc4=O)O[C@]23C)c1 |
| < 60 | – | CC(=O)OC[C@@]1(C)[C@@H]2C[C@H](OC(=O)c3ccc(C)cc3)[C@@]3(C)Oc4cc(-c5cccnc5)oc(=O)c4[C@H](O)[C@@H]3[C@@]2(C)CC[C@@H]1OC(C)=O |
| > 540 | 10 to 20 | CC(C)C(=O)OC[C@@]1(C)[C@@H]2C[C@H](OC(=O)c3ccc([N+](=O)[O-])cc3)[C@@]3(C)Oc4cc(-c5cccnc5)oc(=O)c4[C@H](O)[C@@H]3[C@@]2(C)CC[C@@H]1OC(=O)C(C)C |
| > 540 | 0.1 to 1 | CC(C)C(=O)OC[C@@]1(C)[C@@H]2C[C@H](OC(=O)c3ccc(C#N)cc3)[C@@]3(C)Oc4cc(-c5cccnc5)oc(=O)c4[C@H](O)[C@@H]3[C@@]2(C)CC[C@@H]1OC(=O)C(C)C |
| < 60 | – | CC(=O)OC[C@@]1(C)[C@@H]2C[C@H](OC(C)=O)[C@@]3(C)Oc4cc(-c5cccnc5)oc(=O)c4[C@H](O)[C@@H]3[C@@]2(C)CC[C@@H]1OC(C)=O |
| > 540 | 10 to 20 | C[C@@]12CO[C@@H](c3ccccc3F)O[C@H]1CC[C@@]1(C)[C@H]2C[C@H](OC(=O)c2ccc(F)cc2)[C@@]2(C)Oc3cc(-c4cccnc4)oc(=O)c3[C@H](O)[C@H]12 |
| > 540 | < 20 | CC(=O)OC[C@@]1(C)[C@@H]2C[C@H](OC(=O)c3ccc(C#N)cc3)[C@@]3(C)Oc4cc(-c5cccnc5)oc(=O)c4[C@H](O)[C@@H]3[C@@]2(C)CC[C@@H]1OC(=O)C(C)C |
| < 60 | – | CC(=O)OC[C@@]1(C)[C@@H]2C[C@H](OC(=O)c3ccccc3C)[C@@]3(C)Oc4cc(-c5cccnc5)oc(=O)c4[C@H](O)[C@@H]3[C@@]2(C)CC[C@@H]1OC(C)=O |
| > 540 | 10 to 20 | CC(=O)O[C@H]1CC[C@@]2(C)[C@@H](C[C@H](OC(C)=O)[C@@]3(C)Oc4cc(-c5cccnc5)oc(=O)c4[C@H](O)[C@H]23)[C@]1(C)COC(=O)c1ccccc1 |
| > 540 | 10 to 20 | Cc1cccc([C@@H]2OC[C@@]3(C)[C@@H]4C[C@H](OC(=O)c5ccc(F)cc5)[C@@]5(C)Oc6cc(-c7cccnc7)oc(=O)c6[C@H](O)[C@@H]5[C@@]4(C)CC[C@@H]3O2)c1 |
| > 540 | < 20 | Cc1cccc([C@@H]2OC[C@@]3(C)[C@@H]4C[C@H](OC(=O)c5ccc(C#N)cc5)[C@@]5(C)Oc6cc(-c7cccnc7)oc(=O)c6[C@H](O)[C@@H]5[C@@]4(C)CC[C@@H]3O2)c1 |
| > 540 | 10 to 20 | COc1ccc(C(OC)O[C@H]2C[C@H]3[C@]4(C)CO[C@@H](c5ccccc5)O[C@H]4CC[C@]3(C)[C@H]3[C@@H](O)c4c(cc(-c5cccnc5)oc4=O)O[C@]23C)cc1 (some centres not stated) |
| > 540 | 10 to 20 | C[C@@]12CO[C@@H](c3ccccc3F)O[C@H]1CC[C@@]1(C)[C@H]2C[C@H](OC(=O)c2ccc(C#N)cc2)[C@@]2(C)Oc3cc(-c4cccnc4)oc(=O)c3[C@H](O)[C@H]12 |
| > 540 | 10 to 20 | Cc1ccc([C@@H]2OC[C@@]3(C)[C@@H]4C[C@H](OC(=O)c5ccc(F)cc5)[C@@]5(C)Oc6cc(-c7cccnc7)oc(=O)c6[C@H](O)[C@@H]5[C@@]4(C)CC[C@@H]3O2)c(C)c1 |
| > 540 | 10 to 20 | Cc1ccccc1[C@@H]1OC[C@@]2(C)[C@@H]3C[C@H](OC(=O)c4ccc(F)cc4)[C@@]4(C)Oc5cc(-c6cccnc6)oc(=O)c5[C@H](O)[C@@H]4[C@@]3(C)CC[C@@H]2O1 |

| SMILES | half-life at 6 ug/ml [1] [min] | Ratio IC50 [2] |
| --- | --- | --- |
| CC(=O)OC[C@@]1(C)[C@@H]2C[C@H](OC(=O)C3CCCCC3)[C@@]3(C)Oc4cc(-c5cccnc5)oc(=O)c4[C@H](O)[C@@H]3[C@@]2(C)CC[C@@H]1OC(C)=O | < 60 | – |
